Converted amounts (≈) assume the structure as drawn. Each block holds one compound with its values, some of them ahead of it.
Columns and labels:
Streptococcus pyogenes = assay: In vitro antibacterial activity against Streptococcus pyogenes 308A by agar dilution method using Mueller-Hinton; type: functional
Enterobacter cloacae = assay: In vitro antibacterial activity against Enterobacter cloacae 1321E by agar dilution method using Mueller-Hinton; type: functional
Klebsiella aerogenes = assay: In vitro antibacterial activity against Klebsiella aerogenes 1522E by agar dilution method using Mueller-Hinton; type: functional
Escherichia coli [1] = assay: In vitro antibacterial activity against Escherichia coli 078 by agar dilution method using Mueller-Hinton; type: functional
Pseudomonas aeruginosa [2] = assay: In vitro antibacterial activity against Pseudomonas aeruginosa 1592E by agar dilution method using Mueller-Hinton; type: functional
Staphylococcus aureus [3] = assay: In vitro antibacterial activity against Staphylococcus aureus SG 511 by agar dilution method using Mueller-Hinton; type: functional
Staphylococcus aureus [4] = assay: In vitro antibacterial activity against Staphylococcus aureus SG 285 by agar dilution method using Mueller-Hinton; type: functional
Staphylococcus aureus [5] = assay: In vitro antibacterial activity against Staphylococcus aureus SG 503 by agar dilution method using Mueller-Hinton; type: functional
Escherichia coli [6] = assay: In vitro antibacterial activity against Escherichia coli 1507E by agar dilution method using Mueller-Hinton; type: functional
Pseudomonas aeruginosa [7] = assay: In vitro antibacterial activity against Pseudomonas aeruginosa 1771M by agar dilution method using Mueller-Hinton; type: functional
Salmonella typhimurium = assay: In vitro antibacterial activity against Salmonella Typhimurium by agar dilution method using Mueller-Hinton; type: functional, Salmonella enterica subsp. enterica serovar Typhimurium; conditions: Salmonella enterica
Pseudomonas aeruginosa [8] = assay: In vitro antibacterial activity against Pseudomonas aeruginosa 9027 by agar dilution method using Mueller-Hinton; type: functional
[9] = Pharmacokinetic studies were carried out to determine the clearance after administration at 20 mg/kg intravenously in rat; type: ADME, organism-based; set-up: dose 20 mg/kg, route intravenous; conditions: in vivo, iv
[10] = The area under concentration-time curve(AUC) was determined at 20 mg/kg of compound dose, administered intravenously in rat; type: ADME, organism-based; set-up: dose 20 mg/kg, route intravenous; conditions: in vivo, iv

SMILES: C[C@@H](O)[C@H]1C(=O)N2C(C(=O)[O-])=C(S[C@@H]3CN[C@H](CSc4nnnn4CC[N+](C)(C)C)C3)[C@H](C)[C@H]12
- MIC (Streptococcus pyogenes): 0.025 µg/mL (≈ 0.0489 µM)
- MIC (Enterobacter cloacae): 0.098 µg/mL (≈ 0.192 µM)
- MIC (Klebsiella aerogenes): 0.195 µg/mL (≈ 0.381 µM)
- MIC (Escherichia coli [1]): 0.049 µg/mL (≈ 0.0958 µM)
- MIC (Pseudomonas aeruginosa [2]): 0.781 µg/mL (≈ 1.53 µM)
- MIC (Staphylococcus aureus [3]): 0.098 µg/mL (≈ 0.192 µM)
- MIC (Staphylococcus aureus [4]): 0.195 µg/mL (≈ 0.381 µM)
- MIC (Staphylococcus aureus [5]): 0.049 µg/mL (≈ 0.0958 µM)
- MIC (Escherichia coli [6]): 0.098 µg/mL (≈ 0.192 µM)
- MIC (Pseudomonas aeruginosa [7]): 0.195 µg/mL (≈ 0.381 µM)
- MIC (Salmonella typhimurium): 0.195 µg/mL (≈ 0.381 µM)
- MIC (Pseudomonas aeruginosa [8]): 0.781 µg/mL (≈ 1.53 µM)

SMILES: C[C@@H](O)[C@H]1C(=O)N2C(C(=O)O)=C(SCCNC=N)C[C@H]12 [IMIPENEM ANHYDROUS]
- MIC (Streptococcus pyogenes): 0.007 µg/mL (≈ 0.0234 µM)
- MIC (Enterobacter cloacae): 0.195 µg/mL (≈ 0.651 µM)
- MIC (Klebsiella aerogenes): 0.391 µg/mL (≈ 1.31 µM)
- MIC (Escherichia coli [1]): 0.098 µg/mL (≈ 0.327 µM)
- MIC (Pseudomonas aeruginosa [2]): 1.56 µg/mL (≈ 5.22 µM)
- MIC (Staphylococcus aureus [3]): 0.025 µg/mL (≈ 0.0835 µM)
- clearance [9]: 61.5 mL/min/kg
- AUC [10]: 5500 ng·h/mL
- MIC (Staphylococcus aureus [4]): 0.025 µg/mL (≈ 0.0835 µM)
- MIC (Staphylococcus aureus [5]): 0.013 µg/mL (≈ 0.0434 µM)
- MIC (Escherichia coli [6]): 0.195 µg/mL (≈ 0.651 µM)
- MIC (Pseudomonas aeruginosa [7]): 0.195 µg/mL (≈ 0.651 µM)
- MIC (Salmonella typhimurium): 0.781 µg/mL (≈ 2.61 µM)
- MIC (Pseudomonas aeruginosa [8]): 0.781 µg/mL (≈ 2.61 µM)

SMILES: C[C@@H](O)[C@H]1C(=O)N2C(C(=O)O)=C(S[C@@H]3CN[C@H](C(=O)N(C)C)C3)[C@H](C)[C@H]12 [MEROPENEM]
- MIC (Streptococcus pyogenes): 0.013 µg/mL (≈ 0.0339 µM)
- MIC (Enterobacter cloacae): 0.025 µg/mL (≈ 0.0652 µM)
- MIC (Klebsiella aerogenes): 0.049 µg/mL (≈ 0.128 µM)
- MIC (Escherichia coli [1]): 0.025 µg/mL (≈ 0.0652 µM)
- MIC (Pseudomonas aeruginosa [2]): 0.195 µg/mL (≈ 0.509 µM)
- MIC (Staphylococcus aureus [3]): 0.195 µg/mL (≈ 0.509 µM)
- MIC (Staphylococcus aureus [4]): 0.195 µg/mL (≈ 0.509 µM)
- MIC (Staphylococcus aureus [5]): 0.098 µg/mL (≈ 0.256 µM)
- MIC (Escherichia coli [6]): 0.025 µg/mL (≈ 0.0652 µM)
- MIC (Pseudomonas aeruginosa [7]): 0.049 µg/mL (≈ 0.128 µM)
- MIC (Salmonella typhimurium): 0.049 µg/mL (≈ 0.128 µM)
- MIC (Pseudomonas aeruginosa [8]): 0.195 µg/mL (≈ 0.509 µM)

Continued by falling MIC (Streptococcus pyogenes), values first:

- MIC (Streptococcus pyogenes): 0.013 µg/mL (≈ 0.0261 µM)
- MIC (Enterobacter cloacae): 0.049 µg/mL (≈ 0.0985 µM)
- MIC (Klebsiella aerogenes): 0.098 µg/mL (≈ 0.197 µM)
- MIC (Escherichia coli [1]): 0.025 µg/mL (≈ 0.0502 µM)
- MIC (Pseudomonas aeruginosa [2]): 3.12 µg/mL (≈ 6.28 µM)
- MIC (Staphylococcus aureus [3]): 0.049 µg/mL (≈ 0.0985 µM)
- MIC (Staphylococcus aureus [4]): 0.098 µg/mL (≈ 0.197 µM)
- MIC (Staphylococcus aureus [5]): 0.025 µg/mL (≈ 0.0502 µM)
- MIC (Escherichia coli [6]): 0.049 µg/mL (≈ 0.0985 µM)
- MIC (Pseudomonas aeruginosa [7]): 0.195 µg/mL (≈ 0.392 µM)
- MIC (Salmonella typhimurium): 0.098 µg/mL (≈ 0.197 µM)
- MIC (Pseudomonas aeruginosa [8]): 3.12 µg/mL (≈ 6.28 µM)
SMILES: C[C@@H](O)[C@H]1C(=O)N2C(C(=O)O)=C(S[C@@H]3CN[C@H](CSc4nnnn4CCN(C)C)C3)[C@H](C)[C@H]12

- MIC (Streptococcus pyogenes): 0.013 µg/mL (≈ 0.0254 µM)
- MIC (Enterobacter cloacae): 0.049 µg/mL (≈ 0.0958 µM)
- MIC (Klebsiella aerogenes): 0.098 µg/mL (≈ 0.192 µM)
- MIC (Escherichia coli [1]): 0.025 µg/mL (≈ 0.0489 µM)
- MIC (Pseudomonas aeruginosa [2]): 3.12 µg/mL (≈ 6.11 µM)
- MIC (Staphylococcus aureus [3]): 0.195 µg/mL (≈ 0.381 µM)
- MIC (Staphylococcus aureus [4]): 0.195 µg/mL (≈ 0.381 µM)
- MIC (Staphylococcus aureus [5]): 0.049 µg/mL (≈ 0.0958 µM)
- MIC (Escherichia coli [6]): 0.049 µg/mL (≈ 0.0958 µM)
- MIC (Pseudomonas aeruginosa [7]): 0.391 µg/mL (≈ 0.764 µM)
- MIC (Salmonella typhimurium): 0.049 µg/mL (≈ 0.0958 µM)
- MIC (Pseudomonas aeruginosa [8]): 3.12 µg/mL (≈ 6.11 µM)
SMILES: C[C@@H](O)[C@H]1C(=O)N2C(C(=O)O)=C(S[C@@H]3CN[C@H](CSc4nnnn4CC(=O)N(C)C)C3)[C@H](C)[C@H]12

- MIC (Streptococcus pyogenes): 0.013 µg/mL (≈ 0.0261 µM)
- MIC (Enterobacter cloacae): 0.049 µg/mL (≈ 0.0985 µM)
- MIC (Klebsiella aerogenes): 0.098 µg/mL (≈ 0.197 µM)
- MIC (Escherichia coli [1]): 0.025 µg/mL (≈ 0.0502 µM)
- MIC (Pseudomonas aeruginosa [2]): 1.56 µg/mL (≈ 3.14 µM)
- MIC (Staphylococcus aureus [3]): 0.195 µg/mL (≈ 0.392 µM)
- MIC (Staphylococcus aureus [4]): 0.195 µg/mL (≈ 0.392 µM)
- MIC (Staphylococcus aureus [5]): 0.098 µg/mL (≈ 0.197 µM)
- MIC (Escherichia coli [6]): 0.049 µg/mL (≈ 0.0985 µM)
- MIC (Pseudomonas aeruginosa [7]): 0.391 µg/mL (≈ 0.786 µM)
- MIC (Salmonella typhimurium): 0.098 µg/mL (≈ 0.197 µM)
- MIC (Pseudomonas aeruginosa [8]): 1.56 µg/mL (≈ 3.14 µM)
SMILES: CNC(=O)Cn1nnnc1SC[C@@H]1C[C@H](SC2=C(C(=O)O)N3C(=O)[C@H]([C@@H](C)O)[C@H]3[C@H]2C)CN1

- MIC (Streptococcus pyogenes): 0.007 µg/mL (≈ 0.0128 µM)
- MIC (Enterobacter cloacae): 0.025 µg/mL (≈ 0.0456 µM)
- MIC (Klebsiella aerogenes): 0.049 µg/mL (≈ 0.0895 µM)
- MIC (Escherichia coli [1]): 0.025 µg/mL (≈ 0.0456 µM)
- MIC (Pseudomonas aeruginosa [2]): 3.12 µg/mL (≈ 5.71 µM)
- MIC (Staphylococcus aureus [3]): 0.098 µg/mL (≈ 0.179 µM)
- MIC (Staphylococcus aureus [4]): 0.098 µg/mL (≈ 0.179 µM)
- MIC (Staphylococcus aureus [5]): 0.025 µg/mL (≈ 0.0456 µM)
- MIC (Escherichia coli [6]): 0.025 µg/mL (≈ 0.0456 µM)
- MIC (Pseudomonas aeruginosa [7]): 0.391 µg/mL (≈ 0.714 µM)
- MIC (Salmonella typhimurium): 0.049 µg/mL (≈ 0.0895 µM)
- MIC (Pseudomonas aeruginosa [8]): 3.12 µg/mL (≈ 5.71 µM)
SMILES: CNS(=O)(=O)CCn1nnnc1SC[C@@H]1C[C@H](SC2=C(C(=O)O)N3C(=O)[C@H]([C@@H](C)O)[C@H]3[C@H]2C)CN1

Source: ChEMBL document CHEMBL1133208, “Synthesis and biological properties of new 1beta-methylcarbapenems having tetrazolothioether moiety” (Bioorg Med Chem Lett, 2000)
